# PubChem BioAssay (NCI)
#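 Compound exposure: 48 hours, 5 concentrations, 96-well plates. At the TGI there is no net growth.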
# Columns and labels:
# Assay in all cases: NCI-60 cell line screen, 48 h
# HCT-15 colon = tested on: HCT-15 colon
# DU-145 prostate = tested on: DU-145 prostate
# U251 CNS = tested on: U251 CNS
# NCI-H226 lung = tested on: NCI-H226 lung
# BT-549 breast = tested on: BT-549 breast
# CCRF-CEM leukemia = tested on: CCRF-CEM leukemia
# MDA-MB-435 = tested on: MDA-MB-435
# SW-620 colon = tested on: SW-620 colon
# 786-0 renal = tested on: 786-0 renal
# HOP-92 NSCLC = tested on: HOP-92 NSCLC
# EKVX NSCLC = tested on: EKVX NSCLC
# IGROV1 ovarian = tested on: IGROV1 ovarian
# ACHN renal = tested on: ACHN renal
smiles,measurement,setting,value
CN(CCCNC(=O)c1[nH]nc2c1ccc1ccccc12)CCCNC(=O)c1[nH]nc2c1ccc1ccccc12,TGI,HCT-15 colon,31.2 µM
same,TGI,DU-145 prostate,31.8 µM
same,TGI,U251 CNS,28.4 µM
same,TGI,NCI-H226 lung,30.7 µM
same,TGI,BT-549 breast,29.4 µM
same,TGI,CCRF-CEM leukemia,29.4 µM
same,TGI,MDA-MB-435,7.71 µM
same,TGI,SW-620 colon,35.2 µM
same,TGI,786-0 renal,22.9 µM
same,TGI,HOP-92 NSCLC,28.3 µM
same,TGI,EKVX NSCLC,38.8 µM
same,TGI,IGROV1 ovarian,30.9 µM
same,TGI,ACHN renal,31.4 µM
